This is an account of results in ChEMBL document CHEMBL1125472, “5-lipoxygenase: properties, pharmacology, and the quinolinyl(bridged)aryl class of inhibitors” (J Med Chem, 1992).

Broadly, the IC50 is the concentration that gives 50% inhibition. A low value points to inhibition by little substance.

Assay [1] concerns the target T1, Polyunsaturated fatty acid 5-lipoxygenase (Rattus norvegicus, UniProt P12527).
T1 sequence (P12527 whole entry): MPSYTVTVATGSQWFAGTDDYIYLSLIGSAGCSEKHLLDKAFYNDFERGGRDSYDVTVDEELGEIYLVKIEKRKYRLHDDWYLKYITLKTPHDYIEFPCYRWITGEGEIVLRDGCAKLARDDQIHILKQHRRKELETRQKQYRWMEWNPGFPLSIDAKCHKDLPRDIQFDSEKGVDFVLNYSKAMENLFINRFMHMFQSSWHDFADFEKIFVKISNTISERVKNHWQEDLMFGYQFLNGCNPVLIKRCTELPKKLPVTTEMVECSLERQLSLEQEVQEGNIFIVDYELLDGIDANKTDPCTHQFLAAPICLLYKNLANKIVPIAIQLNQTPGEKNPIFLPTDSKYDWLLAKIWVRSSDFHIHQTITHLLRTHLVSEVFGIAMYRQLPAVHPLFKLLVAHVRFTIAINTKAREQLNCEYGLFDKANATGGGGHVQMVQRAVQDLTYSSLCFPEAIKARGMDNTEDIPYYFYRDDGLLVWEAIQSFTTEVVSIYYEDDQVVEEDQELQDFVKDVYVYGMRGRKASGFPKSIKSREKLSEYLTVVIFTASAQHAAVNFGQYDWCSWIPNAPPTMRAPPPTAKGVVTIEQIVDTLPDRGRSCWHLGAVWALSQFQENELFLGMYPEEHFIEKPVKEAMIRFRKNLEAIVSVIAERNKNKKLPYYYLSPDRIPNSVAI
In words: The compound was tested for inhibitory activity against 5-lipoxygenase in rat RBL-1. It counts as cell-based.

Assay [2] has as its system RBL-1. Briefly: The compound was tested for inhibitory activity against 5-HETE synthesis in rat RBL-1. It counts as functional, cell-based.
The target of assay [3] is T2, Polyunsaturated fatty acid 5-lipoxygenase (Homo sapiens, UniProt P09917).
T2 sequence (P09917 whole entry): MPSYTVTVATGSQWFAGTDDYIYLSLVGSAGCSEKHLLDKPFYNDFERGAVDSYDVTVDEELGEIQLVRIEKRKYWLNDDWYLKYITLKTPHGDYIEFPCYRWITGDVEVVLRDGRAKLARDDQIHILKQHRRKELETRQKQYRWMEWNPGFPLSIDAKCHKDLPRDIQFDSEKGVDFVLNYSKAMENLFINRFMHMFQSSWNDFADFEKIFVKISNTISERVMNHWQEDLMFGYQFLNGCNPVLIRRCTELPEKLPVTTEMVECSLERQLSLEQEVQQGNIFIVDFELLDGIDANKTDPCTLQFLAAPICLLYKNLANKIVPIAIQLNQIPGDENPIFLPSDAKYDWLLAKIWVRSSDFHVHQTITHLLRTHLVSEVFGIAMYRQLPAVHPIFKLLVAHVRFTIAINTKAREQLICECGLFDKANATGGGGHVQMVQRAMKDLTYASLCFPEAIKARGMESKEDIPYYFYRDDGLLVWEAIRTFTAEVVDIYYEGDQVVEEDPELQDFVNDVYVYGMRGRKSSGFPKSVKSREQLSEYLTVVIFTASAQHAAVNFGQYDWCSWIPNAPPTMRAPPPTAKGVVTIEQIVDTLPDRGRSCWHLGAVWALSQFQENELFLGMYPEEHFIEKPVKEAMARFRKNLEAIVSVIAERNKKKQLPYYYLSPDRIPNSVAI
In words: The compound was tested for inhibitory activity against 5-lipoxygenase in human polymorphonuclear leukocytes[PMNS]. It counts as cell-based.

Assay [4] deals with Cavia porcellus. Briefly: The compound was tested for inhibition of LTD4-induced bronchoconstriction in guinea pig at 50 mg/kg (in vivo). It is filed as functional. To be noted: read-out: Inhibition.
The target of assay [5] is T3, Cyclooxygenase (Rattus norvegicus, UniProt P35355+Q63921).
T3 sequence (P35355 whole entry): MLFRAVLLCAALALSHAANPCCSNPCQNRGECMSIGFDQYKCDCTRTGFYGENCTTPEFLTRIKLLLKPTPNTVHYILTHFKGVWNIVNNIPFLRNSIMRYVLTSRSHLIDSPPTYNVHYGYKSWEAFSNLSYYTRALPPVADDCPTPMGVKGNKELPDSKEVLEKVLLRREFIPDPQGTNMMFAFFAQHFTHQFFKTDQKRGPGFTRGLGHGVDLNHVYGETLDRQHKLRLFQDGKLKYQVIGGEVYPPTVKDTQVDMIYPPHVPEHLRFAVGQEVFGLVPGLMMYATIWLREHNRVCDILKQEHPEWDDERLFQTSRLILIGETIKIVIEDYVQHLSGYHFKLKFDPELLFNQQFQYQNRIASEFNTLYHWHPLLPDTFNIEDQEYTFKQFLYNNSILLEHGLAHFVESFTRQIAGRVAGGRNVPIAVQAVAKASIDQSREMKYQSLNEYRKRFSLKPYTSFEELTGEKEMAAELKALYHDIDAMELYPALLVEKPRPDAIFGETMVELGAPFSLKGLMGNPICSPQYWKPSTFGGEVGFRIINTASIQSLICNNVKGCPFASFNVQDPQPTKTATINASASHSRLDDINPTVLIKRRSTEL
T3 sequence (Q63921 whole entry): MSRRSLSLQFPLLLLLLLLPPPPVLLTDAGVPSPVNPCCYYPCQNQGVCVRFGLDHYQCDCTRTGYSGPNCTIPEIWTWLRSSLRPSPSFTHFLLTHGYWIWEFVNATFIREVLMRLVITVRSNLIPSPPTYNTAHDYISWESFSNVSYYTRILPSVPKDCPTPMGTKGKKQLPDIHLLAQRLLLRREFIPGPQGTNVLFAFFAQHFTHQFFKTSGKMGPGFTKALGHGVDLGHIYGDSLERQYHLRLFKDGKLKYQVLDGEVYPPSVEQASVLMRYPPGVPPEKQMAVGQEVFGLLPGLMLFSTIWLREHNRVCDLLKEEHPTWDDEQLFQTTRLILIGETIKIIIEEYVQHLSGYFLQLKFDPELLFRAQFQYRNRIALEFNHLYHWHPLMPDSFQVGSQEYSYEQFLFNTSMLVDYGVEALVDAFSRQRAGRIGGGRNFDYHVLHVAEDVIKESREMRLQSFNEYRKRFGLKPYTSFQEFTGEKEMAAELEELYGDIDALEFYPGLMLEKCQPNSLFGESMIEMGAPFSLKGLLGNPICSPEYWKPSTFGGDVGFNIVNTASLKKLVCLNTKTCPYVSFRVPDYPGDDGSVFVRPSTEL
Briefly: The compound was tested for inhibitory activity against Prostaglandin G/H synthase using rat polymorphonuclear leukocytes[PMNS].

The target in assay [6] is T1, Polyunsaturated fatty acid 5-lipoxygenase. In words: The compound was tested for inhibitory activity against 5-lipoxygenase using rat polymorphonuclear leukocytes[PMNS].
The species entered for assay [7] is Mus musculus. Briefly: The compound was tested for inhibition of thromboxane B2 synthesis. It counts as functional, organism-based.
Assay [8] deals with T4, Polyunsaturated fatty acid 5-lipoxygenase (Rattus norvegicus) (UniProt P12527).
T4 sequence (whole entry): T1 sequence (P12527 whole entry)
Briefly: The compound was tested for inhibition of isolated 5-Lipoxygenase.

For assay [9], the species on record is Mus musculus. Briefly: The compound was tested for inhibition of prostaglandin E2[PGE2] synthesis. It counts as functional, organism-based.
For assay [10], the species on record is Mus musculus. Briefly: The compound was tested for inhibitory activity against LTC4 synthesis in mouse peritoneal macrophages. It counts as functional.
The subject of assay [11] is RBL-2H3. In words: The compound was tested for inhibition of translocation in SAR in RBL-2H3 cells. It counts as functional, Rattus norvegicus.
Assay [12] has as its system RBL-2H3. In words: The compound was tested for inhibition LTC4 synthesis. It is filed as functional, Rattus norvegicus.

Compound `CCN1C(=S)N(c2ccc(N3CCN(c4ccc(O)cc4)CC3)cc2)C(=O)C1(C)C` yielded an IC50 in [1] of 500 nM.
For the compound `CC1=C(C)C(=O)C(Cc2cccnc2)=C(C)C1=O`, the midpoint of inhibition in assay [2], the IC50, lay at 62 nM.
In [3], `O=C(O)c1ccc(CN(Cc2cccc(F)c2)c2ccc(OCc3ccc4ccccc4n3)cc2)cc1` came in with a half-inhibitory concentration (IC50) of 20 nM.
Turning to `Oc1cccc(OCc2ccc3ccccc3n2)c1`, the inhibition in vivo at 50 mg/kg in assay [4] came to 82%. The IC50 in assay [5] is over 100000 nM; in assay [6], 6070 nM.
With `COC(=O)CCC(=O)N(O)c1cccc(OCc2ccc3ccccc3n2)c1`, the half-inhibitory concentration (IC50) in [7] was 4520 nM; in assay [9], 7200 nM; in assay [10], 450 nM. The Inhibition was 1530 nM in [8], 750 nM in assay [11] and 780 nM in [12].
